According to patent US5288709A, “Erythromycin derivatives” (priority 1991, dated 1994):
Converted amounts (≈) assume the structure as drawn. Like-named read-outs stand apart in the source and are kept apart here.

Key:
Assay in all cases: In-vitro antimicrobial activity primary screen (agar dilution MIC)
Format in all cases: cell-based
[1] = test system: Staphylococcus aureus 45 RAR2; conditions: Staphylococcus aureus, 45RAR2, 24 h, BHI agar, 20-24 h
Experimental: (§1) The antimicrobial spectra of several of the compounds of the present invention were tested as described below.
(§2) Twelve petri dishes containing successive aqueous dilutions of the test compounds, mixed with 10 mL of sterilized Brain Heart Infusion (BHI) agar (Difco 0418-01-5), were prepared. Each plate was inoculated with 1:100 (or 1:10 for slow growing strains (primarily Micrococcus and Streptococcus) dilutions of up to 32 different microorganisms, using a Steers replicator block. The inoculated plates were incubated at 35 37° C. for 20-24 hours. In addition, a control plate, using BHI agar containing no test compound, was prepared and incubated at the beginning and the end of each test.
(§3) An additional plate containing a compound having known susceptibility patterns for the organisms being tested and belonging to the same antibiotic class as the test compounds was also prepared and incubated as a further control, as well as to provide test-to test comparability.
(§4) After incubation, each plate was read. The MIC (minimum inhibitory concentration) is defined as the lowest concentration of test compound yielding no growth, a slight haze, or sparsely isolated colonies on the inoculum spot as compared to the growth control containing no test compound.

[2] = test system: Streptococcus bovis A5169; conditions: Streptococcus equinus, BHI agar, 20-24 h
Experimental: as §1, §2, §3, §4

[3] = test system: Micrococcus luteus ATCC 4698; conditions: 20-24 h
Experimental: as §1, §2, §3, §4

[4] = test system: Staphylococcus aureus A5177; conditions: Staphylococcus aureus A5177, BHI agar, 20-24 h
Experimental: as §1, §2, §3, §4

[5] = test system: Klebsiella pneumoniae ATCC 8045
Experimental: as §1, §2, §3, §4

Escherichia coli H560 = test system: Escherichia coli H560
Experimental: as §1, §2, §3, §4

Acinetobacter SP CMX 669 = test system: Acinetobacter SP CMX 669
Experimental: as §1, §2, §3, §4

Escherichia coli JUHL = test system: Escherichia coli JUHL
Experimental: as §1, §2, §3, §4

[6] = test system: Pseudomonas aeruginosa BMH10; conditions: BHI agar, 20-24 h
Experimental: as §1, §2, §3, §4

[7] = test system: Streptococcus pyrogenes 2548 INDUC; conditions: Streptococcus, 2548INDUC, 24 h, BHI agar, 20-24 h
Experimental: as §1, §2, §3, §4

Escherichia coli DC-2 = test system: Escherichia coli DC-2
Experimental: as §1, §2, §3, §4

[8] = test system: Enterobacter aerogenes ATCC 13048; conditions: Klebsiella aerogenes
Experimental: as §1, §2, §3, §4

[9] = test system: Pseudomonas aeruginosa K799/WT
Experimental: as §1, §2, §3, §4

[10] = test system: Pseudomonas aeruginosa A5007
Experimental: as §1, §2, §3, §4

[11] = test system: Enterococcus faecium ATCC 8043
Experimental: as §1, §2, §3, §4

[12] = test system: Streptococcus agalactiae CMX 508; conditions: 20-24 h
Experimental: as §1, §2, §3, §4

Staphylococcus aureus 45 = conditions: BHI agar, 20-24 h
Experimental: as §1, §2, §3, §4

[13] = test system: Staphylococcus epidermidis 3519; conditions: Staphylococcus epidermidis, 3519, 24 h, BHI agar, 20-24 h
Experimental: as §1, §2, §3, §4

Escherichia coli SS = conditions: BHI agar, 20-24 h
Experimental: as §1, §2, §3, §4

[14] = test system: Streptococcus pyrogenes EES61; conditions: BHI agar, 20-24 h
Experimental: as §1, §2, §3, §4

[15] = test system: Staphylococcus aureus ATCC 6538P; conditions: Staphylococcus aureus, ATCC6538P, 24 h, BHI agar, 20-24 h
Experimental: as §1, §2, §3, §4

[16] = test system: Pseudomonas aeruginosa K799/61; conditions: Pseudomonas aeruginosa, K799/61, 24 h
Experimental: as §1, §2, §3, §4

[17] = test system: Micrococcus luteus ATCC 9341; conditions: 20-24 h
Experimental: as §1, §2, §3, §4

[18] = test system: Providencia stuartii CMX 640
Experimental: as §1, §2, §3, §4

Pseudomonas cepacia 2961 = conditions: BHI agar, 20-24 h
Experimental: as §1, §2, §3, §4

[19] = test system: Staphylococcus aureus CMX 553; conditions: Staphylococcus aureus, CMX553, 24 h, BHI agar, 20-24 h, read-out: MIC
Experimental: as §1, §2
(§5) An additional plate containing a compound having known susceptibility patterns for the organisms being tested and belonging to the same antibiotic class as the test compounds was also prepared and incubated as a further control, as well as to provide test-to test comparability. Erythromycin A was used for this purpose.
as §4

[20] = test system: Staphylococcus aureus CMX 686B; conditions: CMX686B, BHI agar, 20-24 h, read-out: MIC
Experimental: as §1, §2, §5, §4

[21] = test system: Staphylococcus aureus CMX 503A; conditions: Staphylococcus aureus, CMX503A, 24 h, BHI agar, 20-24 h, read-out: MIC
Experimental: as §1, §2, §5, §4

[22] = Micrococcus luteus, ATCC4698, 24 h, BHI agar
[23] = Staphylococcus aureus, A5177, 24 h
[24] = Klebsiella pneumoniae, ATCC8045, 24 h
[25] = Pseudomonas aeruginosa, BMH10, 24 h
[26] = Pseudomonas aeruginosa, K799/WT, 24 h
[27] = Pseudomonas aeruginosa, A5007, 24 h
[28] = Enterococcus faecium, ATCC8043, 24 h
[29] = Streptococcus agalactiae, CMX508, 24 h, BHI agar
[30] = Pseudomonas aeruginosa K799/61, BHI agar, 20-24 h
[31] = ATCC9341, BHI agar, read-out: MIC
[32] = Providencia stuartii, CMX640, 24 h
[33] = Burkholderia cepacia, 2961, 24 h

Compound	MIC [1] [µg/mL]	MIC ([2]; read-out: MIC) [µg/mL]	MIC [3, 22] [µg/mL]	MIC [4, 23] [µg/mL]	MIC [5, 24] [µg/mL]	MIC [6, 25] [µg/mL]	MIC [7] [µg/mL]	MIC ([8]; ATCC13048, 24 h) [µg/mL]	MIC [9, 26] [µg/mL]	MIC [10, 27] [µg/mL]	MIC [11, 28] [µg/mL]	MIC [12, 29] [µg/mL]	MIC (Staphylococcus aureus 45; read-out: MIC) [µg/mL]	MIC [13] [µg/mL]	MIC (Escherichia coli SS; Escherichia coli, 24 h) [µg/mL]	MIC [15] [µg/mL]	MIC [16, 30] [µg/mL]	MIC [19] [µg/mL]	MIC [20] [µg/mL]	MIC [21] [µg/mL]	other results
CC[C@H]1OC(=O)[C@H](C)[C@@H](O[C@H]2C[C@@](C)(OC)[C@@H](N)[C@H](C)O2)[C@H](C)[C@@H](O[C@@H]2O[C@H](C)C[C@H](N(C)C)[C@H]2O)[C@](C)(O)C[C@@H](C)[C@@H]2O[C@@]1(C)C(=O)[C@H]2C [Example 14, (4"S,9S)-4"-Amino-9-deoxo-4",11,12-trideoxy-9,12-epoxy-11-oxoerythromycin A]	0.39 (≈ 0.546 µM)	0.1 (≈ 0.14 µM)	0.1 (≈ 0.14 µM)	3.1 (≈ 4.34 µM)	100 (≈ 140 µM)	50 (≈ 69.9 µM)	3.1 (≈ 4.34 µM)	> 100	> 100	> 100	0.1 (≈ 0.14 µM)	0.05 (≈ 0.0699 µM)	0.39 (≈ 0.546 µM)	0.39 (≈ 0.546 µM)	0.2 (≈ 0.28 µM)	0.39 (≈ 0.546 µM)	1.56 (≈ 2.18 µM)	0.2 (≈ 0.28 µM)	0.39 (≈ 0.546 µM)	0.39 (≈ 0.546 µM)	MIC (Escherichia coli H560; Escherichia coli, H560, 24 h, Escherichia coli H560, BHI agar, 20-24 h): 12.5 µg/mL (≈ 17.5 µM); MIC (Acinetobacter SP CMX 669; Acinetobacter, SPCMX669, 24 h, Acinetobacter SP CMX 669, BHI agar, 20-24 h): 12.5 µg/mL (≈ 17.5 µM); MIC (Escherichia coli JUHL; Escherichia coli, 24 h, Escherichia coli JUHL, BHI agar, 20-24 h): 25 µg/mL (≈ 35 µM); MIC (Escherichia coli DC-2; Escherichia coli, DC2, 24 h, Escherichia coli DC-2, BHI agar, 20-24 h): 25 µg/mL (≈ 35 µM); MIC ([14]; Streptococcus, EES61, 24 h): 0.05 µg/mL (≈ 0.0699 µM); MIC [17, 31]: 0.05 µg/mL (≈ 0.0699 µM); MIC [18, 32]: > 100 µg/mL; MIC (Pseudomonas cepacia 2961; [33]): > 100 µg/mL
CC[C@H]1OC(=O)[C@H](C)[C@@H](O[C@H]2C[C@@](C)(OC)[C@@H](NS(C)(=O)=O)[C@H](C)O2)[C@H](C)[C@@H](O[C@@H]2O[C@H](C)C[C@H](N(C)C)[C@H]2O)[C@](C)(O)C[C@@H](C)[C@@H]2O[C@@]1(C)C(=O)[C@H]2C [Example 16, (4"S,9S)-9-Deoxo-4",11,12-trideoxy-9,12-epoxy-4"-(methylsulfonyl)amino-11-oxerythromycin A]	0.78 (≈ 0.984 µM)	< 0.005	–	0.39 (≈ 0.492 µM)	–	–	3.1 (≈ 3.91 µM)	–	–	–	–	–	–	0.39 (≈ 0.492 µM)	0.39 (≈ 0.492 µM)	0.39 (≈ 0.492 µM)	–	0.39 (≈ 0.492 µM)	0.39 (≈ 0.492 µM)	0.39 (≈ 0.492 µM)	MIC ([3]; ATCC4698, BHI agar, read-out: MIC): 0.05 µg/mL (≈ 0.063 µM); MIC ([5]; ATCC8045, Klebsiella pneumoniae ATCC 8045, BHI agar, 20-24 h, read-out: MIC): > 100 µg/mL; MIC (Escherichia coli H560; Escherichia coli H560, BHI agar, 20-24 h, read-out: MIC): > 100 µg/mL; MIC (Acinetobacter SP CMX 669; SPCMX669, Acinetobacter SP CMX 669, BHI agar, 20-24 h, read-out: MIC): 50 µg/mL (≈ 63 µM); MIC (Escherichia coli JUHL; Escherichia coli JUHL, BHI agar, 20-24 h, read-out: MIC): > 100 µg/mL; MIC ([6]; read-out: MIC): 100 µg/mL (≈ 126 µM); MIC (Escherichia coli DC-2; DC2, Escherichia coli DC-2, BHI agar, 20-24 h, read-out: MIC): > 100 µg/mL; MIC ([8]; ATCC13048, Enterobacter aerogenes ATCC 13048, BHI agar, 20-24 h, read-out: MIC): > 100 µg/mL; MIC ([9]; Pseudomonas aeruginosa K799/WT, BHI agar, 20-24 h, read-out: MIC): 100 µg/mL (≈ 126 µM); MIC ([10]; Pseudomonas aeruginosa A5007, BHI agar, 20-24 h, read-out: MIC): > 100 µg/mL; MIC ([11]; ATCC8043, Enterococcus faecium ATCC 8043, BHI agar, 20-24 h, read-out: MIC): 0.05 µg/mL (≈ 0.063 µM); MIC ([12]; CMX508, BHI agar, read-out: MIC): 0.02 µg/mL (≈ 0.0252 µM); MIC (Staphylococcus aureus 45; Staphylococcus aureus, 45, 24 h): 0.39 µg/mL (≈ 0.492 µM); MIC ([14]; read-out: MIC): < 0.005 µg/mL; MIC [16]: 3.1 µg/mL (≈ 3.91 µM); MIC ([17]; Micrococcus luteus, ATCC9341, 24 h, BHI agar): 0.02 µg/mL (≈ 0.0252 µM); MIC ([18]; CMX640, Providencia stuartii CMX 640, BHI agar, 20-24 h, read-out: MIC): > 100 µg/mL; MIC (Pseudomonas cepacia 2961; Burkholderia cepacia, read-out: MIC): > 100 µg/mL
CC[C@H]1OC(=O)[C@H](C)[C@@H](O[C@H]2C[C@@](C)(OC)[C@H](NCc3ccccc3)[C@H](C)O2)[C@H](C)[C@@H](O[C@@H]2O[C@H](C)C[C@H](N(C)C)[C@H]2O)[C@](C)(O)C[C@@H](C)[C@@H]2O[C@@]1(C)C(=O)[C@H]2C [Example 12, (4"R,9S)-9-Deoxo-4", 11,12-trideoxy-9,12-epoxy-11-oxo-4"-[(phenylmethyl)amino]erythromycin A]	0.39 (≈ 0.484 µM)	–	0.39 (≈ 0.484 µM)	–	> 100	> 100	3.1 (≈ 3.85 µM)	> 100	100 (≈ 124 µM)	> 100	0.2 (≈ 0.248 µM)	0.1 (≈ 0.124 µM)	0.2 (≈ 0.248 µM)	0.39 (≈ 0.484 µM)	–	0.39 (≈ 0.484 µM)	3.1 (≈ 3.85 µM)	0.2 (≈ 0.248 µM)	0.39 (≈ 0.484 µM)	0.39 (≈ 0.484 µM)	MIC ([2]; A5169, 24 h): 0.05 µg/mL (≈ 0.0621 µM); MIC ([4]; read-out: MIC): 0.39 µg/mL (≈ 0.484 µM); MIC (Escherichia coli H560; Escherichia coli, H560, 24 h): > 100 µg/mL; MIC (Acinetobacter SP CMX 669; Acinetobacter, SPCMX669, 24 h): > 100 µg/mL; MIC (Escherichia coli JUHL; Escherichia coli, 24 h): > 100 µg/mL; MIC (Escherichia coli DC-2; Escherichia coli, DC2, 24 h): > 100 µg/mL; MIC (Escherichia coli SS; read-out: MIC): 3.1 µg/mL (≈ 3.85 µM); MIC ([14]; read-out: MIC): 0.1 µg/mL (≈ 0.124 µM); MIC [17, 31]: 0.05 µg/mL (≈ 0.0621 µM); MIC [18, 32]: > 100 µg/mL; MIC (Pseudomonas cepacia 2961; [33]): > 100 µg/mL
